In one data set the test system is Anas platyrhynchos. Particulars: short-term; oral; feed; mortality.
The subject of a further data set is Apis mellifera. The conditions noted are these: acute; duration: 48 hours; oral; unspecified; mortality.
The test system of a further data set is Cyprinus carpio. The conditions noted are these: acute; duration: 96 hours; mortality.
In the next data set the test system is Daphnia magna. The conditions noted are these: chronic/long-term; duration: 21 days; reproduction.
Another data set deals with Folsomia candida. Particulars: chronic/long-term; duration: 28 days.
The next data set deals with Mus musculus. The conditions noted are these: oral.
A further data set concerns Oncorhynchus mykiss. Particulars: chronic/long-term; duration: 28 days; growth.
In the next data set the test system is Typhlodromus pyri. Kind of data set: LR50; higher = less toxic. The conditions noted are these: acute; duration: 7 days; mortality.

SMILES strings stand for the structures. Values after ≈ are worked out from the molar mass of the structure shown. Some results are limits rather than exact numbers.

One may read the NOAEL as the highest dose or exposure tested at which no adverse effect was seen. As for `CC(C)=NOCCOC(=O)[C@@H](C)Oc1ccc(Oc2cnc3cc(Cl)ccc3n2)cc1` [Propaquizafop], the LC50 is greater than 827 mg/kg-day in the data set with Anas platyrhynchos; 0.19 µg/mL (≈ 0.428 µM) with Cyprinus carpio; greater than 1000 mg/kg in the data set with Tagia sp. (acute, mortality). Further, the LD50 was greater than 20 µg/piece with Apis mellifera; greater than 2000 mg/kg in the data set with Colinus virginianus (acute, oral, mortality); 3010 mg/kg in the data set on Mus musculus (acute, mortality). Moreover, the NOEC was no less than 20.2 mg/kg-day in the data set with Colinus virginianus (reproduction developmental); 0.44 mg/L with Daphnia magna; 5.4 mg/kg in the data set with Folsomia candida; 0.019 mg/L in the data set with Oncorhynchus mykiss; 3.9 mg/kg in the data set with Tagia sp. (chronic/long-term, duration: 56 days). The NOAEL with Mus musculus (chronic, duration: 18 months, clinical chemistry) was 1.5 mg/kg-day; with Rattus norvegicus (reproduction developmental, reproduction), 15 mg/kg-day; in the data set with Rattus norvegicus (subchronic, duration: 90 days, oral), 6.25 mg/kg-day. Besides, in the data set with Typhlodromus pyri, the LR50 was greater than 1.4 g/ha.

The values are drawn from EPA's ToxValDB 9.5 (doi:10.2903/j.efsa.2009.204r).
